Experimental data reported in PMC11478334, “Quaternized Curcumin Derivative—Synthesis, Physicochemical Characteristics, and Photocytotoxicity, Including Antibacterial Activity after Irradiation with Blue Light” (Molecules, 2024).
Read-outs that look alike come from different tables or passages of the source.

Experiments:
S. aureus = details: cited from earlier work
P. aeruginosa = details: 50 µg/mL; 670 nm; 97.65 J/cm^2; 5 min; cited from earlier work
[1] = cited from earlier work
[2] = set-up: method as in doi:10.1016/j.synthmet.2008.06.007; details: TTF column, cited from earlier work
Aliivibrio fischeri = experiment: Microtox acute toxicity test; type: cell-based; details: tested at 1, 10 and 100 µM
Description: All studied compounds were subjected to a Microtox acute toxicity test. The test is based on bioluminescent Aliivibrio fischeri bacteria, which are very sensitive to the presence of toxic substances. Changes in the toxicity of the environment surrounding the bacterium influence its respiratory processes and translate into the emitted bioluminescence intensity. Therefore, in contact with a toxic substance at a specific concentration, a linear decrease in luminescence is observed. Dimethylsulfoxide was used as a solubilizer of studied compounds in amounts not exceeding 1% v/v. To determine the effect of the solvent alone, 1% DMSO solution in water was also tested.
The acute toxicity of the tested curcumionoids was investigated on a Modern Water Microtox Model 500 apparatus equipped with Modern Water MicrotoxOmni 4.2 software, according to the 81.9% screening test procedure provided by the manufacturer (Modern Water, London, UK). All the reagents and solutions (Microtox Acute Reagent, Microtox Diluent, and Microtox Osmotic Adjusting Solution) were purchased from Tigret (Warsaw, Poland). Solutions of the tested compounds were prepared using DMSO and deionized water. […] Each compound was tested at three final concentrations (1 µM, 10 µM, and 100 µM) and at two time points: 5 min and 15 min. The change in the bacterial bioluminescence was monitored after the addition of the sample solution and compared to the negative control.

For `O=C([O-])c1c(Cl)c(Cl)c(Cl)c(Cl)c1-c1c2cc(I)c(=O)c(I)c-2oc2c(I)c([O-])c(I)cc12.[Na+].[Na+]` [Rose bengal], the “Efficiency (log reduction)” value (S. aureus; 0.31 µg/mL, 515 nm, 5.8 mW/cm^2, 37 J/cm^3) is listed as 6 log and the “Efficiency (log reduction)” value (S. aureus; 0.62 µg/mL, 515 nm, 5.8 mW/cm^2, 18 J/cm^2) is listed as 6 log.
For `Cc1cc2nc3ccc(N(C)C)cc3[s+]c2cc1N.[Cl-]` [Toluidine blue], the “Efficiency (log reduction)” value (S. aureus; 50 µg/mL, 670 nm, 97.65 J/cm^2, 5 min) is listed as 2.66 log and the “Efficiency (log reduction)” value (P. aeruginosa) is listed as 2.36 log.
For `[Zn+2].c1ccc2c(c1)-c1nc-2nc2[n-]c(nc3nc([n-]c4nc(n1)-c1ccccc1-4)-c1ccccc1-3)c1ccccc21` [ZnPc, zinc(II) phthalocyanine], the “10^−5 Φp (photodecomposition quantum yield)” value ([1]; DMF) is listed as 1.02 [38] 10^−5, the “ΦP (photodecomposition quantum yield)” value ([1]; DMF) is listed as 10.2 × 10^−6 and the “10^−5 Φp (photodecomposition quantum yield)” value ([1]; DMSO) is listed as 0.35 [39] 10^−5. The “ΦP (photodecomposition quantum yield)” value ([1]; DMSO) was 3.5 × 10^−6, the “singlet oxygen quantum yield” value ([2]; DMF) was 0.56 [39] and the “singlet oxygen quantum yield” value ([2]; DMSO) was 0.67 [39].
With `COc1cc(C=CC2=CC(C=Cc3ccc(O)c(OC)c3)=[O+][B-](F)(F)O2)ccc1O` [curcumin–BF2 complex, reference compound] the “acute toxicity / ecotoxicity verdict” value (Aliivibrio fischeri) was “toxic at every concentration tested”.
